ChEMBL document CHEMBL1926511, “Novel amino-piperidines as potent antibacterials targeting bacterial type IIA topoisomerases” (Bioorg Med Chem Lett, 2011)
Values after ≈ are worked out from the molar mass of the structure shown. Active and inactive are the calls of the source. The calls are words filed in the database; no cut-off is given here.

molecular target: not listed separately; assay: Inhibition of Haemophilus influenzae DNA gyrase-dependent DNA replication by scintillation proximity assay; settings: not given

SMILES | IC50
COc1ccc2ncc(F)c([C@@H](O)CN3CCC(NCc4cc5c(cn4)OCCO5)CC3)c2n1 | 0.078 µg/mL (≈ 0.166 µM)

system: Haemophilus influenzae; assay: Antibacterial activity against Haemophilus influenzae H128 after 18 to 24 hrs by broth microdilution method; format: functional; settings: not given

SMILES | MIC
COc1ccc2ncc(F)c([C@@H](O)CN3CCC(NCc4cc5c(cn4)OCCO5)CC3)c2n1 | 0.5 µg/mL (≈ 1.06 µM)

system: Staphylococcus aureus; assay: Antibacterial activity against Staphylococcus aureus WCUH 29 after 18 to 24 hrs by broth microdilution method; format: functional; settings: not given

SMILES | MIC
COc1ccc2ncc(F)c([C@@H](O)CN3CCC(NCc4cc5c(cn4)OCCO5)CC3)c2n1 | 0.03 µg/mL (≈ 0.0639 µM)

system: Streptococcus pneumoniae; assay: Antibacterial activity against Streptococcus pneumoniae 1629 after 18 to 24 hrs by broth microdilution method; format: functional; settings: not given

SMILES | MIC
COc1ccc2ncc(F)c([C@@H](O)CN3CCC(NCc4cc5c(cn4)OCCO5)CC3)c2n1 | 0.06 µg/mL (≈ 0.128 µM)

molecular target: T1, Voltage-gated inwardly rectifying potassium channel KCNH2 (Homo sapiens, UniProt Q12809); assay: Inhibition of human ERG expressed in HEK293 cells by patch-clamp electrophysiology; format: cell-based; settings: not given
T1 sequence (Q12809 whole entry): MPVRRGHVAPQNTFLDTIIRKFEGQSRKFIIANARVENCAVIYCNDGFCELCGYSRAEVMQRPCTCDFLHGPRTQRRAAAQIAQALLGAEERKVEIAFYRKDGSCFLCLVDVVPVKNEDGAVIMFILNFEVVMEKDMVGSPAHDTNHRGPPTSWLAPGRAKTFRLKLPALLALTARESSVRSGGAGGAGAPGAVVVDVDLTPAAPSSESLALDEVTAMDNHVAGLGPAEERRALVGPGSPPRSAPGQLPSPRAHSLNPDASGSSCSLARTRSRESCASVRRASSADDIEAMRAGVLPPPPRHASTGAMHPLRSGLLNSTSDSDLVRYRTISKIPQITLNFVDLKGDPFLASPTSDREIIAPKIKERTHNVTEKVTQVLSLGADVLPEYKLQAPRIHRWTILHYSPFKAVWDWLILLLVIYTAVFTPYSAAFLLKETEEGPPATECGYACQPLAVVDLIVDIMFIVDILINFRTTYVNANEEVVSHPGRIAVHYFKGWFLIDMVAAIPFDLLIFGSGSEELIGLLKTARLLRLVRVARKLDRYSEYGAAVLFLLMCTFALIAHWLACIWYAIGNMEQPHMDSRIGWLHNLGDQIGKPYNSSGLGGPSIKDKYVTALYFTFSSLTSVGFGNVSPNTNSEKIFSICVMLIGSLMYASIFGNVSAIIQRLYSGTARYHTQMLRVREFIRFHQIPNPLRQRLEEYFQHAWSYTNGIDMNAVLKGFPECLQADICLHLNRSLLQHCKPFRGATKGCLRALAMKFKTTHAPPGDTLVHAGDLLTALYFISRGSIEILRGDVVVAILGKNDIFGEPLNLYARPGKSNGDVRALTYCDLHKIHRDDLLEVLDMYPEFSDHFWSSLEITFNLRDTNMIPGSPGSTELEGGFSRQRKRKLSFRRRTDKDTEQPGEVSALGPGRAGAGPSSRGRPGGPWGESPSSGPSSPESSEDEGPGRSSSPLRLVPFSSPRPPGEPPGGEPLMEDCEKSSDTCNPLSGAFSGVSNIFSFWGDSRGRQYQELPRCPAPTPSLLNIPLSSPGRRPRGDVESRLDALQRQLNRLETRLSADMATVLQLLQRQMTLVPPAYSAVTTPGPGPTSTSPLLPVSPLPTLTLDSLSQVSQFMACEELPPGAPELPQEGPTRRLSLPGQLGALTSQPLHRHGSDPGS

SMILES | IC50
COc1ccc2ncc(F)c([C@@H](O)CN3CCC(NCc4cc5c(cn4)OCCO5)CC3)c2n1 | 5 µM

molecular target: T1, Voltage-gated inwardly rectifying potassium channel KCNH2; assay: Displacement of [3H]dofetilide from human ERG by liquid scintillation counting; settings: not given

SMILES | IC50
COc1ccc2ncc(F)c([C@@H](O)CN3CCC(NCc4cc5c(cn4)OCCO5)CC3)c2n1 | 79.4 µM

system: not listed separately; assay: Distribution coefficient, log D of the compound at pH 7.4; format: physicochemical; settings: octanol/water

SMILES | logD
COc1ccc2ncc(F)c([C@@H](O)CN3CCC(NCc4cc5c(cn4)OCCO5)CC3)c2n1 | 0.59

system: Streptococcus pneumoniae; assay: Antibacterial activity against Streptococcus pneumoniae 1629 infected in rat respiratory tract infection model assessed as log reduction in bacterial burden at 50 mg/kg, po after 1 hr post infection relative to non-treated control; format: functional; settings: not given

SMILES | log10cfu
COc1ccc2ncc(F)c([C@@H](O)CN3CCC(NCc4cc5c(cn4)OCCO5)CC3)c2n1 | 2

system: Streptococcus pneumoniae; assay: Antibacterial activity against Streptococcus pneumoniae 1629 infected in rat respiratory tract infection model assessed as log reduction in bacterial burden at 50 mg/kg, po after 48 hrs post infection relative to non-treated control; format: functional; settings: not given

SMILES | log10cfu
COc1ccc2ncc(F)c([C@@H](O)CN3CCC(NCc4cc5c(cn4)OCCO5)CC3)c2n1 | >=4

system: Streptococcus pneumoniae; assay: Antibacterial activity against Streptococcus pneumoniae 1629 infected in rat respiratory tract infection model assessed as complete eradication of bacterial burden at 50 mg/kg, po after 31 hrs post infection; format: functional, organism-based; parameters: dose 50 mg/kg; settings: not given

SMILES | Activity
COc1ccc2ncc(F)c([C@@H](O)CN3CCC(NCc4cc5c(cn4)OCCO5)CC3)c2n1 | Active

system: not listed separately; assay: Blood clearance in Sprague-Dawley rat at 3.5 mg/kg, iv; format: ADME, organism-based; parameters: dose 3.5 mg/kg, route intravenous; settings: whole blood

SMILES | clearance
COc1ccc2ncc(F)c([C@@H](O)CN3CCC(NCc4cc5c(cn4)OCCO5)CC3)c2n1 | 67.2 mL/min/kg

system: not listed separately; assay: Blood clearance in Beagle dog at 3.5 mg/kg, iv; format: ADME, organism-based, Canis lupus familiaris; parameters: dose 3.5 mg/kg, route intravenous; settings: whole blood

SMILES | clearance
COc1ccc2ncc(F)c([C@@H](O)CN3CCC(NCc4cc5c(cn4)OCCO5)CC3)c2n1 | 16.7 mL/min/kg

system: not listed separately; assay: Blood clearance in cynomolgus monkey at 3.1 mg/kg, iv; format: ADME, organism-based, Macaca fascicularis; parameters: dose 3.1 mg/kg, route intravenous; settings: whole blood

SMILES | clearance
COc1ccc2ncc(F)c([C@@H](O)CN3CCC(NCc4cc5c(cn4)OCCO5)CC3)c2n1 | 15.2 mL/min/kg

system: not listed separately; assay: Volume of distribution at steady state in Sprague-Dawley rat at 3.5 mg/kg, iv; format: ADME, organism-based; parameters: dose 3.5 mg/kg, route intravenous; settings: in vivo, read-out: Vdss

SMILES | Vd
COc1ccc2ncc(F)c([C@@H](O)CN3CCC(NCc4cc5c(cn4)OCCO5)CC3)c2n1 | 9.8 L/kg

system: not listed separately; assay: Volume of distribution at steady state in Beagle dog at 3.5 mg/kg, iv; format: ADME, organism-based, Canis lupus familiaris; parameters: dose 3.5 mg/kg, route intravenous; settings: in vivo, read-out: Vdss

SMILES | Vd
COc1ccc2ncc(F)c([C@@H](O)CN3CCC(NCc4cc5c(cn4)OCCO5)CC3)c2n1 | 16.5 L/kg

system: not listed separately; assay: Volume of distribution at steady state in cynomolgus monkey at 3.1 mg/kg, iv; format: ADME, organism-based, Macaca fascicularis; parameters: dose 3.1 mg/kg, route intravenous; settings: in vivo, read-out: Vdss

SMILES | Vd
COc1ccc2ncc(F)c([C@@H](O)CN3CCC(NCc4cc5c(cn4)OCCO5)CC3)c2n1 | 4.1 L/kg

system: not listed separately; assay: Half life in Sprague-Dawley rat at 3.5 mg/kg, iv; format: ADME, organism-based; parameters: dose 3.5 mg/kg, route intravenous; settings: in vivo

SMILES | half-life
COc1ccc2ncc(F)c([C@@H](O)CN3CCC(NCc4cc5c(cn4)OCCO5)CC3)c2n1 | 2.5 h

system: not listed separately; assay: Half life in Beagle dog at 3.5 mg/kg, iv; format: ADME, organism-based, Canis lupus familiaris; parameters: dose 3.5 mg/kg, route intravenous; settings: in vivo

SMILES | half-life
COc1ccc2ncc(F)c([C@@H](O)CN3CCC(NCc4cc5c(cn4)OCCO5)CC3)c2n1 | 12.4 h

system: not listed separately; assay: Half life in cynomolgus monkey at 3.1 mg/kg, iv; format: ADME, organism-based, Macaca fascicularis; parameters: dose 3.1 mg/kg, route intravenous; settings: in vivo

SMILES | half-life
COc1ccc2ncc(F)c([C@@H](O)CN3CCC(NCc4cc5c(cn4)OCCO5)CC3)c2n1 | 5.6 h

system: not listed separately; assay: Mean residence time in Sprague-Dawley rat at 3.5 mg/kg, iv; format: ADME, organism-based; parameters: dose 3.5 mg/kg, route intravenous; settings: in vivo

SMILES | MRT
COc1ccc2ncc(F)c([C@@H](O)CN3CCC(NCc4cc5c(cn4)OCCO5)CC3)c2n1 | 2.5 h

system: not listed separately; assay: Mean residence time in Beagle dog at 3.5 mg/kg, iv; format: ADME, organism-based, Canis lupus familiaris; parameters: dose 3.5 mg/kg, route intravenous; settings: in vivo

SMILES | MRT
COc1ccc2ncc(F)c([C@@H](O)CN3CCC(NCc4cc5c(cn4)OCCO5)CC3)c2n1 | 16.5 h

system: not listed separately; assay: Mean residence time in cynomolgus monkey at 3.1 mg/kg, iv; format: ADME, organism-based, Macaca fascicularis; parameters: dose 3.1 mg/kg, route intravenous; settings: in vivo

SMILES | MRT
COc1ccc2ncc(F)c([C@@H](O)CN3CCC(NCc4cc5c(cn4)OCCO5)CC3)c2n1 | 4.6 h

system: not listed separately; assay: AUC in Sprague-Dawley rat at 5.6 mg/kg, po; format: ADME, organism-based; parameters: dose 5.6 mg/kg, route oral; settings: plasma

SMILES | AUC
COc1ccc2ncc(F)c([C@@H](O)CN3CCC(NCc4cc5c(cn4)OCCO5)CC3)c2n1 | 720 ng·h/mL

system: not listed separately; assay: AUC in Beagle dog at 4 mg/kg, po; format: ADME, organism-based, Canis lupus familiaris; parameters: dose 4 mg/kg, route oral; settings: plasma

SMILES | AUC
COc1ccc2ncc(F)c([C@@H](O)CN3CCC(NCc4cc5c(cn4)OCCO5)CC3)c2n1 | 2510 ng·h/mL

system: not listed separately; assay: AUC in cynomolgus monkey at 5.2 mg/kg, po; format: ADME, organism-based, Macaca fascicularis; parameters: dose 5.2 mg/kg, route oral; settings: plasma

SMILES | AUC
COc1ccc2ncc(F)c([C@@H](O)CN3CCC(NCc4cc5c(cn4)OCCO5)CC3)c2n1 | 720 ng·h/mL

system: not listed separately; assay: Oral bioavailability in Sprague-Dawley rat at 5.6 mg/kg; format: ADME, organism-based; settings: in vivo

SMILES | bioavailability
COc1ccc2ncc(F)c([C@@H](O)CN3CCC(NCc4cc5c(cn4)OCCO5)CC3)c2n1 | 51%

system: not listed separately; assay: Oral bioavailability in Beagle dog at 4 mg/kg; format: ADME, organism-based, Canis lupus familiaris; settings: in vivo

SMILES | bioavailability
COc1ccc2ncc(F)c([C@@H](O)CN3CCC(NCc4cc5c(cn4)OCCO5)CC3)c2n1 | 76%

system: not listed separately; assay: Oral bioavailability in cynomolgus monkey at 5.2 mg/kg; format: ADME, organism-based, Macaca fascicularis; settings: in vivo

SMILES | bioavailability
COc1ccc2ncc(F)c([C@@H](O)CN3CCC(NCc4cc5c(cn4)OCCO5)CC3)c2n1 | 12%

system: not listed separately; assay: Plasma protein binding in rat; format: ADME, cell-free; settings: read-out: PPB (converted)

SMILES | fraction unbound
COc1ccc2ncc(F)c([C@@H](O)CN3CCC(NCc4cc5c(cn4)OCCO5)CC3)c2n1 | 0.589

system: not listed separately; assay: Plasma protein binding in cynomolgus monkey; format: ADME, cell-free, Macaca fascicularis; settings: read-out: PPB (converted)

SMILES | fraction unbound
COc1ccc2ncc(F)c([C@@H](O)CN3CCC(NCc4cc5c(cn4)OCCO5)CC3)c2n1 | 0.354

system: not listed separately; assay: Plasma protein binding in human; format: ADME, cell-free; settings: read-out: PPB (converted)

SMILES | fraction unbound
COc1ccc2ncc(F)c([C@@H](O)CN3CCC(NCc4cc5c(cn4)OCCO5)CC3)c2n1 | 0.307

system: Liver; assay: Intrinsic clearance in dog liver microsomes; format: ADME, Canis lupus familiaris, Microsome; settings: not given

SMILES | CL
COc1ccc2ncc(F)c([C@@H](O)CN3CCC(NCc4cc5c(cn4)OCCO5)CC3)c2n1 | 0.7 mL/min/g

system: not listed separately; assay: Intrinsic clearance in cynomolgus monkey liver microsomes; format: ADME, Macaca fascicularis, Microsome; settings: not given

SMILES | CL
COc1ccc2ncc(F)c([C@@H](O)CN3CCC(NCc4cc5c(cn4)OCCO5)CC3)c2n1 | 4.8 mL/min/g

system: Liver microsomes; assay: Intrinsic clearance in human liver microsomes; format: ADME, Microsome; settings: not given

SMILES | CL
COc1ccc2ncc(F)c([C@@H](O)CN3CCC(NCc4cc5c(cn4)OCCO5)CC3)c2n1 | < 0.6 mL/min/g

species: Rattus norvegicus; assay: Hepatic blood flow in Sprague-Dawley rat; format: ADME, organism-based, Liver; settings: not given

SMILES | QH
COc1ccc2ncc(F)c([C@@H](O)CN3CCC(NCc4cc5c(cn4)OCCO5)CC3)c2n1 | 100%

species: Canis familiaris; assay: Hepatic blood flow in Beagle dog; format: ADME, organism-based, Canis lupus familiaris, Liver; settings: not given

SMILES | QH
COc1ccc2ncc(F)c([C@@H](O)CN3CCC(NCc4cc5c(cn4)OCCO5)CC3)c2n1 | 35%

system: Cynomolgus monkey; assay: Hepatic blood flow in cynomolgus monkey; format: ADME, organism-based, Macaca fascicularis, Liver; settings: not given

SMILES | QH
COc1ccc2ncc(F)c([C@@H](O)CN3CCC(NCc4cc5c(cn4)OCCO5)CC3)c2n1 | 35%
